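All cell lines were grown in 96-well plates and treated with compound for 48 hours. Abbreviation: GI50, concentration required for 50% inhibition of growth. TGI: total growth inhibition.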
How the values were obtained:
Experiment in all cases: NCI tumour cell line growth inhibition, 48 h
[1] = tested on: HCC-2998 colon
[2] = tested on: SF-268 CNS
[3] = tested on: UACC-257 melanoma
[4] = tested on: SNB-19 CNS
[5] = tested on: NCI-H226 lung
[6] = tested on: CAKI-1 renal
[7] = tested on: NCI-H460 lung
[8] = tested on: CCRF-CEM leukemia
[9] = tested on: SK-MEL-2 melanoma
[10] = tested on: HL-60(TB) leukemia

SMILES	TGI [1]	TGI [2]	TGI [3]	TGI [4]	TGI [5]	TGI [6]	TGI [7]	TGI [8]	TGI [9]	TGI [10]	GI50 [1]	GI50 [2]	GI50 [3]	GI50 [4]	GI50 [5]	GI50 [6]	GI50 [7]	GI50 [8]	GI50 [9]	GI50 [10]
NCC1Nc2ccccc2[C@@H](O)C1O (stereo partly specified)	> 100 µM	> 100 µM	> 100 µM	> 100 µM	> 100 µM	> 100 µM	> 100 µM	> 100 µM	> 100 µM	> 100 µM										
CN1C/C=C\CCOc2cccc(c2)-c2ccnc(n2)Nc2cccc(c2)C1	0.63 µM	0.548 µM	0.371 µM	4.25 µM	1.3 µM	1.52 µM	1.14 µM	1.04 µM	0.132 µM	0.103 µM	0.0802 µM	0.0561 µM	0.0722 µM	0.057 µM	0.0692 µM	0.0373 µM	0.0398 µM	0.0349 µM	0.0397 µM	0.0232 µM
CN(C)C(=O)c1cc2cnc(Nc3ccc(-c4csc5c(=S)cc(N6CCOCC6)oc45)cc3)nc2n1C1CCCC1	> 50 µM	> 50 µM	> 14.7 µM	> 34.5 µM	> 11.9 µM	> 13.3 µM	> 50 µM	> 9.84 µM	2.84 µM	1.97 µM	0.932 µM	0.693 µM	1.24 µM	0.498 µM	0.405 µM	0.368 µM	0.585 µM	0.274 µM	0.971 µM	0.264 µM
CCOC(=O)[C@@H](N)CCC(=O)N[C@@H](CSCc1ccccc1)C(=O)N[C@@H](C(=O)OCC)c1ccccc1	32.2 µM	31.3 µM	29.7 µM	38 µM	37.5 µM	> 53 µM	> 69.8 µM	> 67.7 µM	32.7 µM	39.5 µM	16.7 µM	16.6 µM	15.4 µM	18.8 µM	16.4 µM	22.2 µM	27.1 µM	21.8 µM	16.7 µM	18.5 µM
NS(=O)(=O)c1ccc(N=Nc2c(O)[nH]c3ccc(-c4cnco4)cc23)cc1	> 25 µM	> 25 µM	> 25 µM	> 25 µM	> 25 µM	> 25 µM	> 25 µM	> 25 µM	> 25 µM	> 25 µM	> 25 µM	> 25 µM	> 25 µM	> 25 µM	> 25 µM	> 25 µM	14.3 µM	14.4 µM	> 25 µM	> 25 µM
O=C(NC1=CC(=O)c2ccccc2C1=O)c1ccccc1	14.3 µM	13.8 µM	2.57 µM	16.4 µM	15.7 µM	3.54 µM	13.1 µM		15.7 µM	2.53 µM	1.27 µM	1.21 µM	1.22 µM	2.9 µM	2.67 µM	1.74 µM	0.643 µM	0.872 µM	0.534 µM	0.639 µM
O=C(O)C1OC(n2cc(F)c(=O)[nH]c2=O)CC1O (stereo unspecified)	> 77.4 µM	> 100 µM	> 100 µM	> 100 µM	> 100 µM	> 100 µM	> 100 µM	> 100 µM	> 100 µM	> 100 µM										
CN1CCN(CCCOc2ccc3nc(Nc4ccc(Cl)c(C(F)(F)F)c4)ccc3c2)CC1	30.4 µM	30 µM	33.4 µM	34.5 µM	57.1 µM	28.4 µM	39.1 µM	22.1 µM	31.6 µM	31.1 µM	14.8 µM	14.1 µM	18.8 µM	16.2 µM	22.2 µM	14.9 µM	16.4 µM	6 µM	16.5 µM	13.9 µM
COc1ccc(Nc2c3ccccc3nc3occc23)cc1	12.2 µM	34 µM	28.9 µM	> 48.5 µM	> 100 µM	> 42 µM	28.1 µM	> 24.7 µM			0.541 µM	3.68 µM	9.98 µM	2.87 µM	31.9 µM	2.93 µM	0.87 µM	1.27 µM		1.47 µM
O=C1OC(c2ccccc2)=N/C1=C\c1cccc2ccccc12	> 100 µM	> 100 µM	> 100 µM	> 100 µM	> 100 µM	> 100 µM	> 100 µM	> 100 µM	> 100 µM	> 100 µM										
CC(C)n1nc(-c2cc3cc(O)ccc3[nH]2)c2c(N)ncnc21	17.8 µM	4.78 µM	1.7 µM	17.9 µM	1.31 µM	1.77 µM	9.38 µM	4.28 µM	1.95 µM	5.77 µM	0.572 µM	0.224 µM	0.161 µM	1.52 µM	0.117 µM	0.262 µM	0.127 µM	0.345 µM	0.229 µM	1.26 µM
CCOc1ccccc1NC(=O)CC(C(=O)OC)C(=O)C(=O)OC (stereo unspecified)	> 100 µM	> 100 µM	> 100 µM	> 100 µM	> 100 µM	> 100 µM	> 100 µM	> 100 µM	> 100 µM	> 100 µM										
Cc1cn(C2CC(O)C(CO)O2)c(=O)n2nnnc12 (stereo unspecified)	> 100 µM	> 100 µM	> 100 µM	> 100 µM	> 100 µM		> 100 µM	> 100 µM	> 100 µM	> 100 µM										
C[C@@H]1CC(=O)C2CCCC1C2=O (stereo partly specified)	> 100 µM	> 100 µM	> 100 µM	> 100 µM	> 100 µM	> 100 µM	> 100 µM	> 100 µM		> 100 µM										
C1=CC2SSSC2C1 (stereo unspecified)	> 100 µM	> 100 µM	> 100 µM	> 100 µM	> 100 µM		> 100 µM	> 100 µM	> 100 µM	> 100 µM										
Cc1ccc(C(=O)CN(/C=C/C(=O)C(F)(F)F)c2ccc(S(N)(=O)=O)cc2)cc1	> 100 µM	> 100 µM	> 100 µM		> 100 µM	> 100 µM	> 100 µM	> 100 µM	> 100 µM	> 100 µM	> 100 µM	> 100 µM	> 100 µM		> 100 µM	93 µM	> 100 µM	30.3 µM	> 100 µM	41.1 µM

— PubChem BioAssay (NCI)
